Experimental data from PubChem BioAssay (NCI).
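Cells were grown in 96-well plates and exposed to each compound for 48 hours at five concentrations; endpoints were interpolated linearly between bracketing concentrations, or set to the highest concentration if not reached. GI50 = concentration required for 50% inhibition of growth. Definition used: TGI = concentration required for complete inhibition of growth.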

Key:
Assay in all cases: NCI tumour cell line growth inhibition, 48 h
[1] = test system: NCI-H460 lung
[2] = test system: ACHN renal
[3] = test system: U251 CNS
[4] = test system: HOP-62 NSCLC
[5] = test system: M14 melanoma
[6] = test system: A498 renal
[7] = test system: OVCAR-5 ovarian
[8] = test system: MDA-MB-231 breast
[9] = test system: SF-295 CNS
[10] = test system: SF-268 CNS
[11] = test system: SK-OV-3 ovarian
[12] = test system: HCC-2998 colon
[13] = test system: CCRF-CEM leukemia
[14] = test system: NCI-H522 lung
[15] = test system: TK-10 renal
[16] = test system: IGROV1 ovarian
[17] = test system: SN12C renal
[18] = test system: SNB-19 CNS
[19] = test system: DU-145 prostate
[20] = test system: NCI-H23 lung
[21] = test system: MALME-3M melanoma
[22] = test system: HS 578T breast
[23] = test system: MCF7 breast
[24] = test system: SK-MEL-28 melanoma
[25] = test system: A549 NSCLC
[26] = test system: LOX IMVI melanoma
[27] = test system: SNB-75 CNS
[28] = test system: MDA-MB-435
[29] = test system: UACC-62 melanoma
[30] = test system: SW-620 colon
[31] = test system: T-47D breast
[32] = test system: SF-539 CNS
[33] = test system: EKVX NSCLC
[34] = test system: SR leukemia
[35] = test system: OVCAR-3 ovarian
[36] = test system: PC-3 prostate
[37] = test system: OVCAR-4 ovarian
[38] = test system: HCT-116 colon
[39] = test system: MOLT-4 leukemia
[40] = test system: COLO 205 colon
[41] = test system: NCI/ADR-RES ovarian
[42] = test system: SK-MEL-5 melanoma
[43] = test system: BT-549 breast
[44] = test system: UO-31 renal
[45] = test system: SK-MEL-2 melanoma
[46] = test system: 786-0 renal
[47] = test system: CAKI-1 renal
[48] = test system: RXF 393 renal
[49] = test system: RPMI-8226 leukemia
[50] = test system: OVCAR-8 ovarian
[51] = test system: K-562 leukemia
[52] = test system: UACC-257 melanoma
[53] = test system: HCT-15 colon
[54] = test system: HOP-92 NSCLC
[55] = test system: HT29 colon
[56] = test system: KM12 colon
[57] = test system: NCI-H226 lung
[58] = test system: HL-60(TB) leukemia

`O=C(CN1C(=O)S/C(=C\C(Cl)=C\c2ccccc2)C1=O)NC1C=CS(=O)(=O)C1` (stereo not drawn) gave a GI50 [1] of 1.86 µM, a TGI [1] of 6.36 µM and a GI50 [2] of 0.931 µM. The TGI [2] was 8.65 µM, the GI50 [3] was 1.88 µM and the TGI [3] was 5.9 µM. It also gave a GI50 [4] of 2.97 µM, a TGI [4] of 11.1 µM and a GI50 [5] of 1.31 µM. The TGI [5] was 4.69 µM, the GI50 [6] was 1.42 µM and the TGI [6] was 4 µM. For the same compound, the GI50 [7] was 2.31 µM, the TGI [7] was 6.13 µM and the GI50 [8] was 1.44 µM. For the same compound, the TGI [8] was 4.15 µM, the GI50 [9] was 2.32 µM and the TGI [9] was 5.19 µM. It also gave a GI50 [10] of 2.44 µM, a TGI [10] of 8.55 µM and a GI50 [11] of 3.3 µM. It also gave a TGI [11] of 32.6 µM, a GI50 [12] of 1.95 µM and a TGI [12] of 3.75 µM. The GI50 [13] was 0.327 µM, the TGI [13] was greater than 100 µM and the GI50 [14] was 0.299 µM. The TGI [14] was 1.33 µM, the GI50 [15] was 2.08 µM and the TGI [15] was 6.61 µM. For the same compound, the GI50 [16] was 1.31 µM, the TGI [16] was 4.31 µM and the GI50 [17] was 1.27 µM. The TGI [17] was 5.51 µM, the GI50 [18] was 2.76 µM and the TGI [18] was 11.5 µM. For the same compound, the GI50 [19] was 1.83 µM, the TGI [19] was 4.27 µM and the GI50 [20] was 2.09 µM. It also gave a TGI [20] of 7.17 µM, a GI50 [21] of 1.27 µM and a TGI [21] of 3.93 µM. The GI50 [22] was 2.33 µM, the TGI [22] was 8.33 µM and the GI50 [23] was 0.467 µM. The TGI [23] was greater than 100 µM, the GI50 [24] was 1.81 µM and the TGI [24] was 3.9 µM. The GI50 [25] was 3 µM, the TGI [25] was greater than 100 µM and the GI50 [26] was 0.24 µM. The TGI [26] was 0.624 µM, the GI50 [27] was 0.387 µM and the TGI [27] was 12.6 µM. For the same compound, the GI50 [28] was 1.55 µM, the TGI [28] was 3.41 µM and the GI50 [29] was 1.13 µM. For the same compound, the TGI [29] was 3.16 µM, the GI50 [30] was 0.553 µM and the TGI [30] was 2.86 µM. It also gave a GI50 [31] of 0.917 µM, a TGI [31] of 8.19 µM and a GI50 [32] of 2 µM. The TGI [32] was 4.76 µM, the GI50 [33] was 2.19 µM and the TGI [33] was 6.06 µM. For the same compound, the GI50 [34] was 0.29 µM, the TGI [34] was greater than 100 µM and the GI50 [35] was 0.729 µM. It also gave a TGI [35] of 2.33 µM, a GI50 [36] of 2.15 µM and a TGI [36] of 7.33 µM. The GI50 [37] was 2.27 µM, the TGI [37] was 17.4 µM and the GI50 [38] was 0.377 µM. For the same compound, the TGI [38] was 1.83 µM, the GI50 [39] was 0.621 µM and the TGI [39] was greater than 100 µM. The GI50 [40] was 1.54 µM, the TGI [40] was 3.76 µM and the GI50 [41] was 1.99 µM. It also gave a TGI [41] greater than 100 µM, a GI50 [42] of 1.72 µM and a TGI [42] of 3.22 µM. It also gave a GI50 [43] of 1.75 µM, a TGI [43] of 4.78 µM and a GI50 [44] of 1.37 µM. For the same compound, the TGI [44] was 2.79 µM, the GI50 [45] was 2.11 µM and the TGI [45] was 5.22 µM. The GI50 [46] was 1.8 µM, the TGI [46] was 4.37 µM and the GI50 [47] was 1.65 µM. The TGI [47] was 4.23 µM, the GI50 [48] was 0.849 µM and the TGI [48] was 2.18 µM. The GI50 [49] was 0.477 µM, the TGI [49] was 4.33 µM and the GI50 [50] was 0.939 µM. The TGI [50] was greater than 100 µM, the GI50 [51] was 0.4 µM and the TGI [51] was greater than 100 µM. For the same compound, the GI50 [52] was 2.18 µM, the TGI [52] was 8.82 µM and the GI50 [53] was 0.378 µM. For the same compound, the TGI [53] was 3.47 µM, the GI50 [54] was 1.67 µM and the TGI [54] was 5.75 µM. It also gave a GI50 [55] of 1.92 µM, a TGI [55] of 6.72 µM and a GI50 [56] of 1.78 µM. It also gave a TGI [56] of 4.11 µM.
For `COc1cccc(/C=C2\COc3ccc(-c4ccccc4)cc3C2=O)c1`, the GI50 [1] was 1.74 µM, the TGI [1] was 3.78 µM and the GI50 [2] was 2.13 µM. It also gave a TGI [2] of 5.59 µM, a GI50 [3] of 1.56 µM and a TGI [3] of 3.05 µM. It also gave a GI50 [4] of 3.91 µM, a TGI [4] of 9.58 µM and a GI50 [5] of 3.87 µM. It also gave a TGI [5] of 14.9 µM, a GI50 [6] of 1.89 µM and a TGI [6] of 3.52 µM. The GI50 [7] was 3.67 µM, the TGI [7] was 13.2 µM and the GI50 [8] was 2.94 µM. For the same compound, the TGI [8] was 7.61 µM, the GI50 [9] was 2.52 µM and the TGI [9] was 10.3 µM. The GI50 [10] was 3.52 µM, the TGI [10] was 11.6 µM and the GI50 [11] was 5.25 µM. For the same compound, the TGI [11] was 35.8 µM, the GI50 [12] was 2 µM and the TGI [12] was 3.95 µM. For the same compound, the GI50 [13] was 2.42 µM, the TGI [13] was 28.1 µM and the GI50 [14] was 1.86 µM. For the same compound, the TGI [14] was 4.06 µM, the GI50 [15] was 2.35 µM and the TGI [15] was 5.03 µM. For the same compound, the GI50 [16] was 3.12 µM, the TGI [16] was 8.39 µM and the GI50 [17] was 2.33 µM. For the same compound, the TGI [17] was 7.49 µM, the GI50 [18] was 2.7 µM and the TGI [18] was 7.21 µM. The GI50 [19] was 2.05 µM, the TGI [19] was 5.43 µM and the GI50 [20] was 3.14 µM. For the same compound, the TGI [20] was 10 µM, the GI50 [21] was 2.53 µM and the TGI [21] was 12.6 µM. For the same compound, the GI50 [22] was 2.76 µM, the TGI [22] was 6.61 µM and the GI50 [23] was 2.05 µM. It also gave a TGI [23] of 9.17 µM, a GI50 [24] of 1.91 µM and a TGI [24] of 3.62 µM. It also gave a GI50 [25] of 3.17 µM, a TGI [25] of 18.7 µM and a GI50 [26] of 2.02 µM. It also gave a TGI [26] of 4.62 µM, a GI50 [27] of 1.99 µM and a TGI [27] of 4.8 µM. It also gave a GI50 [28] of 3.21 µM, a TGI [28] greater than 100 µM and a GI50 [29] of 3.06 µM. For the same compound, the TGI [29] was 12.8 µM, the GI50 [30] was 2.01 µM and the TGI [30] was 4.54 µM. For the same compound, the GI50 [31] was 2.03 µM, the TGI [31] was 4.98 µM and the GI50 [32] was 2.05 µM. It also gave a TGI [32] of 4.12 µM, a GI50 [33] of 4.8 µM and a TGI [33] greater than 100 µM. The GI50 [34] was 1.98 µM, the TGI [34] was greater than 100 µM and the GI50 [36] was 2.87 µM. It also gave a TGI [36] of 16.2 µM, a GI50 [37] of 2.79 µM and a TGI [37] of 7.63 µM. For the same compound, the GI50 [38] was 1.68 µM, the TGI [38] was 3.47 µM and the GI50 [39] was 3.09 µM. It also gave a TGI [39] greater than 100 µM, a GI50 [40] of 2.18 µM and a TGI [40] of 5.06 µM. It also gave a GI50 [41] of 3.63 µM, a TGI [41] of 14.5 µM and a GI50 [42] of 1.67 µM. For the same compound, the TGI [42] was 3.55 µM, the GI50 [43] was 2.09 µM and the TGI [43] was 4.94 µM. For the same compound, the GI50 [44] was 2.98 µM, the TGI [44] was 9.12 µM and the GI50 [45] was 2.38 µM. For the same compound, the TGI [45] was 5.27 µM, the GI50 [46] was 2.63 µM and the TGI [46] was 6.45 µM. The GI50 [47] was 2.55 µM, the TGI [47] was 6.42 µM and the GI50 [50] was 2.21 µM. The TGI [50] was 6.14 µM, the GI50 [51] was 3.32 µM and the TGI [51] was greater than 100 µM. For the same compound, the GI50 [53] was 1.78 µM, the TGI [53] was 4.72 µM and the GI50 [57] was 2.57 µM. It also gave a TGI [57] of 6.79 µM, a GI50 [58] of 2.52 µM and a TGI [58] greater than 100 µM. It also gave a GI50 [54] of 2.34 µM, a TGI [54] of 9.41 µM and a GI50 [55] of 1.7 µM. The TGI [55] was 4.72 µM.
